Data published in patent US20120270250A1, “TEST SYSTEM FOR MEASURING MEST ACTIVITY AS WELL AS METHODS AND USES INVOLVING THE SAME” (SANOFI, priority 2009, published 2012).

Experiments:
MEST T580B = molecular target: T1, MEST T580B (Homo sapiens, UniProt Q5EB52); assay: Glycerol 3-phosphate acyl transferase activity, MEST T580B-recombinant Sf9 crude membranes; assay type: biochemical; conditions: 1 mM NEM for 1 h
T1 construct: T579B=amino acids 2-335 and T580B=amino acids 11-335; made in house; host or cells: Sf9 insect cells (baculovirus, pVL1392); crude total membranes
T1 sequence (Q5EB52 11-335): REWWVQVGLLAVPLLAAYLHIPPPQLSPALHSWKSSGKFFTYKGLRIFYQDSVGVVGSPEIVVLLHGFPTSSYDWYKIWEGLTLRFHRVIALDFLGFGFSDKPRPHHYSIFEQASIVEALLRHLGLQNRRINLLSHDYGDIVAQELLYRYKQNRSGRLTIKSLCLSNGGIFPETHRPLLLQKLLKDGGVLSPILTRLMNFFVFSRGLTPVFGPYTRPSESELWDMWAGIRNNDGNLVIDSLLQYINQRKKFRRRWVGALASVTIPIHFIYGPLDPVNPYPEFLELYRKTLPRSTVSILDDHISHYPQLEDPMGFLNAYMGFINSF
Experimental: (§1) The assay for determining glycerol 3-phosphate acyl transferase is based on the following principle:
(§2) Glycerol 3-phosphate acyl transferase activity was determined as incorporation of palmitate with palmitoyl CoA as acyl donor and radio-labeled [^3H] glycerol 3-phosphate as acyl acceptor, to obtain radio-labeled palmitoyl glycerol 3-phosphate. Radioactive-labeled product palmitoyl glycerol 3-phosphate was separated from the radio-labeled substrate by addition of a scintillator based on organic solvent in order to determine radioactivity in a suitable counter. After separation of phases, only radio-label in the organic solvent phase, which is saturated with scintillator, is detected, i.e. hydrophobic and amphiphilic substances as radio-labeled palmitoyl glycerol 3-phosphate. Hydrophilic radio-labeled glycerol phosphate, which has not been acylated, remains in the aqueous phase and is, therefore, not counted by the scintillation counter. The low amount of “cross-irradiation” from the aqueous phase to the organic phase was corrected by substracting a blank value of a control (containing all reaction components apart from MEST protein) for all MEST reactions.
(§3) Membranes of insect cells expressing human recombinant MEST protein (as below) in homogenization buffer adjusted to the desired concentration (determination of protein content by BioRad assay)
(§4) 10 μl enzyme solution were incubated with 50 μl reaction solution at 25° C. for 60 min. Incubation was carried out in an Eppendorf Thermomixer comfort with gentle agitation (450 min^−1), wherein the openings of the plate were sealed by a protection film (Whatman Uni Seal 7704-0009). The reaction was terminated by addition of 5 μl 200 mM glycerol 3-phosphate and 200 μl scintillation liquid (beta-plate, #1205-440, Perkin Elmer) and incubation under agitation as above at 25° C. for 15 min. After at least 12 hours of incubation at 25° C. without agitation for separation of the phases, radioactivity (in dpm) was measured in a scintillation counter (Wallac 1450 micro beta).
(§5) The enzyme solution (total membranes of Sf9 insect cells) was produced as follows: Sf9 insect cells were pelleted by centrifugation and frozen in aliquots (about 7-9 g). When needed, pelleted Sf9 insect cells were quickly thawed in a 37° C. water bath and kept on ice until further processing. Thereafter, they were transferred into a 50 ml glass homogenizer containing 10 ml homogenization buffer and, additionally, 0.5 mM DTT for preparing a suspension. Cells were homogenized in a teflon-in-glass homogenizer (10×1500/min at 4° C.). The homogenate was transferred into JA25.5 centrifugation tubes (Beckman #363647), diluted with 10 ml homogenization buffer plus DTT and pelleted by centrifugation (500 g, 5 min, 4° C., refrigerated centrifuge Beckman Avanti JA25I). […]

[1] = test system: endogenous insect cell glycerol 3-phosphate acyltransferase activities; assay: Glycerol 3-phosphate acyl transferase activity, non-transfected Sf9 crude membranes; assay type: biochemical, Sf9 insect cells; conditions: 1 mM NEM for 1 h
Experimental: as §1, §2, §4
as §5, with “JA25I). The supernatant was transferred into ultracentrifugation tubes (Beckman #355618) and centrifugated (100000 g, 60 min, 4° C., Beckman Optima LE-80K). The supernatant was completely removed.” for “JA25I).”

MEST T579B = molecular target: T2, MEST T579B (Homo sapiens, UniProt Q5EB52); assay: Glycerol 3-phosphate acyl transferase activity, MEST T579B-recombinant Sf9 crude membranes; assay type: biochemical
T2 construct: T579B=amino acids 2-335 and T580B=amino acids 11-335; made in house; host or cells: Sf9 insect cells (baculovirus, pVL1392); crude total membranes
T2 sequence (Q5EB52 2-335): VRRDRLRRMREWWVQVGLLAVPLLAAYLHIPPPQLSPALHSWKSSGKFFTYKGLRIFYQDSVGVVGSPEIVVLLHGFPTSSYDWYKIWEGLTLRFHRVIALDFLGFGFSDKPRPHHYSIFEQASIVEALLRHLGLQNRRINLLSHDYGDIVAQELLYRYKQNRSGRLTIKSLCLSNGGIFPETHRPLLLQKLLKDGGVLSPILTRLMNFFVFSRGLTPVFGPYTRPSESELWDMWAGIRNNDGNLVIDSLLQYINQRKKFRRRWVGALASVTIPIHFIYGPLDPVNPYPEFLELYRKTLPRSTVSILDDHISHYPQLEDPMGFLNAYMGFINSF
Experimental: as §1, §2, §3, §4
The enzyme solution (total membranes of Sf9 insect cells) was produced as follows: Sf9 insect cells were pelleted by centrifugation and frozen in aliquots (about 7-9 g). When needed, pelleted Sf9 insect cells were quickly thawed in a 37° C. water bath and kept on ice until further processing. Thereafter, they were transferred into a 50 ml glass homogenizer containing 10 ml homogenization buffer and, additionally, 0.5 mM DTT for preparing a suspension. Cells were homogenized in a teflon-in-glass homogenizer (10×1500/min at 4° C.). The homogenate was transferred into JA25.5 centrifugation tubes (Beckman #363647), diluted with 10 ml homogenization buffer plus DTT and pelleted by centrifugation (500 g, 5 min, 4° C., refrigerated centrifuge Beckman Avanti JA25I). The supernatant was transferred into ultracentrifugation tubes (Beckman #355618) and centrifugated (100000 g, 60 min, 4° C., Beckman Optima LE-80K). The supernatant was completely removed. The pellet was two times carefully washed with homogenization buffer and then resuspended in homogenization buffer. Enzyme solution was aliquoted, frozen in liquid nitrogen and stored at −80° C.
The experiment was carried out as detailed above. Particularly, crude membranes from insect cells (SF9) transfected to express MEST (T579B) were produced and assayed for glycerol 3-phosphate acyltransferase activity (dpm/test) in the presence of A003564556 or S987600. […]
The experiment was carried out as detailed above. Particularly, crude membranes of non-transfected insect cells (SF9) or insect cells (SF9) transfected to express either MEST (T579B) or GPAT (GPAT1, -3 or -4) were produced and assayed in the presence of 1 mM N-Ethylmaleimide (NEM) for 1 h or at 41° C. for 10 min.

[2] = 1 mM NEM for 1 h, 10 μg Protein/Test
[3] = 1 mM NEM for 1 h, 30 μg Protein/Test
[4] = inhibitor 0.3 μM, MEST T579B 10 μg/Test
[5] = inhibitor 1 μM, MEST T579B 10 μg/Test
[6] = inhibitor 3 μM, MEST T579B 10 μg/Test
[7] = inhibitor 10 μM, MEST T579B 10 μg/Test
[8] = inhibitor 30 μM, MEST T579B 10 μg/Test
[9] = inhibitor 100 μM, MEST T579B 10 μg/Test
[10] = inhibitor 200 μM, MEST T579B 10 μg/Test

## CCN1C(=O)C=CC1=O [NEM, N-Ethylmaleimide]
MEST T580B; 10 μg Protein/Test
  Activity (dpm/Test): −11 dpm/Test
  inhibition at 1000 µM: 101%
MEST T580B; 30 μg Protein/Test
  Activity (dpm/Test): 31 dpm/Test
  inhibition at 1000 µM: 96%
[1]; 10 μg Protein/Test
  % Inhibition: 95%
  Activity (dpm/Test): 6 dpm/Test
[1]; 30 μg Protein/Test
  % Inhibition: 107%
  Activity (dpm/Test): −12 dpm/Test
MEST T579B; 1 mM NEM for 1 h
  Inhibition of MEST activity (in words): completely
MEST T579B; [2]
  Activity (dpm/Test): 49 dpm/Test
  inhibition at 1000 µM: 90%
MEST T579B; [3]
  Activity (dpm/Test): 53 dpm/Test
  inhibition at 1000 µM: 94%

## O=C(O)CCCCCCCCCCCNC(=O)NC12CC3CC(CC(C3)C1)C2 [A003564556]
MEST T579B; MEST T579B crude membranes
  Inhibition of MEST activity (in words): partially inhibited
MEST T579B; [4]
  Activity (dpm/Test): 905 dpm/Test
  inhibition at 0.3 µM: -6%
MEST T579B; [5]
  Activity (dpm/Test): 1011 dpm/Test
  inhibition at 1 µM: -19%
MEST T579B; [6]
  Activity (dpm/Test): 881 dpm/Test
  inhibition at 3 µM: -4%
MEST T579B; [7]
  Activity (dpm/Test): 845 dpm/Test
  inhibition at 10 µM: 1%
MEST T579B; [8]
  Activity (dpm/Test): 779 dpm/Test
  inhibition at 30 µM: 8%
MEST T579B; [9]
  Activity (dpm/Test): 557 dpm/Test
  inhibition at 100 µM: 34%
MEST T579B; [10]
  Activity (dpm/Test): 458 dpm/Test
  inhibition at 200 µM: 48%
MEST T579B; partial inhibition of glycerol 3-phosphate acyl transferase activity
  IC50: ~200 µM
